Values quoted from earlier work, collected in patent US7939561B2, “Blister packaging for acute pain regimens” (APR Applied Pharma Research s.a., priority 2006, dated 2011).

behaviour in an acidic environment: tendency to precipitate
Structure (SMILES): O=C(O)Cc1ccccc1Nc1c(Cl)cccc1Cl [diclofenac potassium]
